In patent publication US20100247579A1, “THERAPEUTIC AGENT FOR CANCER” (priority 2007, published 2010):
Counter-ions that a name gives are not always drawn. Like-named read-outs stand apart in the source and are kept apart here.

How the values were obtained:
[1] = tested on: lymphocytes derived from cancer patient No. PT009 expanded with OKT3 and CH-296; experiment: Resistance to anticancer agents, WST-1 GI50 on cultured lymphocytes of cancer patient No. PT009; type: cell-based, human; conditions: Homo sapiens, Lymphocyte, day 10 of culture with OKT3 and CH-296, 20 hours with drug, read-out: GI50
Procedure: After that, the suspension was stained by the trypan blue staining method to calculate the viable cell count, and then subjected to each experiment.
(§1) On the other hand, the IL-2/5HRPMI was added to the control group in 50 μL/well each.
(§2) These culture plates were incubated at 37° C. for 20 hours in the presence of 5% CO2. After the incubation, WST-1 (Premix WST-1 Cell Proliferation Assay System, manufactured by Takara Bio Inc.) was added in 20 μL/well each to each well of the plate, and incubated in the presence of 5% CO2 at 37° C. for 4 hours. The plates after the incubation were centrifuged at 500×g at room temperature for 5 minutes. After the centrifugation, 100 μL of the supernatant was collected from each well, and the absorbance was measured at an absorption wavelength of 450 nm and a control wavelength of 630 nm [hereinafter referred to as the absorbance (450 nm-630 nm)] using a microplate reader (manufactured by Bio-Rad Laboratories, Inc., Model Number 680XR), and then the specific absorbance (450 nm-630 nm) was calculated according to the following formula.
(§3) Specific absorbance (450 nm-630 nm)=Absorbance of Test Cell Addition Group (450 nm-630 nm)−Absorbance of Control Group (450 nm-630 nm) Formula 2: […]

[2] = tested on: expanded lymphocytes derived from a human healthy donor; experiment: Resistance to anticancer agents, WST-1 GI50 on cultured lymphocytes of a human healthy donor; type: cell-based; conditions: Homo sapiens, Lymphocyte
Procedure: as §1, §2, §3
Here, a group where only OKT3 was immobilized to the culture equipment in the expansion of the lymphocytes was also set.
However, in the case of paclitaxel, a human AB type serum was used as a solvent for dilution, and for other drugs, 5HRPMI was used for dilution.

[3] = tested on: lymphocytes expanded from PBMC of cancer patient; experiment: Flow cytometry analysis of naive T-like cell phenotypes in expanded lymphocytes; type: cell-based, human; conditions: Example 5
Procedure: The cells on days 10 and 14 of culture, prepared in item (3) of Example 2, were washed with DPBS containing 1% bovine serum albumin (BSA, manufactured by Sigma) (hereinafter referred to as 1% BSA/DPBS) or DPBS, and the cells were suspended in 1% BSA/DPBS, then FITC labeled mouse IgG1/RD1 labeled mouse IgG1/PC5 labeled mouse IgG1 (manufactured by Beckman Coulter Inc.) were added thereto as a negative control. Similarly, cells added with RD1 labeled mouse anti-human CD45RA antibody (manufactured by Beckman Coulter Inc.)/FITC labeled mouse anti-human CCR7 antibody (manufactured by R&D Systems), cells added with RD1 labeled mouse anti-human CD45RA antibody/FITC labeled mouse anti-human CD28 antibody (manufactured by eBioscience, Inc.)/PC5 labeled mouse anti-human CD27 antibody (manufactured by Beckman Coulter Inc.), and cells added with RD1 labeled mouse anti-human CD45RA antibody/FITC labeled mouse anti-human CCR7 antibody/PC5 labeled mouse anti-human CD62L antibody (manufactured by Beckman Coulter Inc.) were prepared. After addition of each antibody, incubation was carried out on ice for 30 minutes. After the incubation, the cells were washed with DPBS containing 0.1% BSA (hereinafter referred to as 0.1% BSA/DPBS), and suspended again in DPBS. The ratio of CCR7^+CD45RA^+ cells, CD27^+CD45RA^+ cells, CD28^+CD45RA^+ cells, CD62L^+CD45RA^+ cells, and CCR7^+CD62L^+CD45RA^+ cells of each cell population was calculated. […]
With respect to the cells on days 10 and 14 of culture, prepared in item (2) of Example 5, analysis of CCR7^+CD45RA^+ cells, CD62L^+CD45RA^+ cells, and CCR7^+CD62L^+CD45RA^+ cells was performed similarly to the method described in item (4) of Example 2.

PBMC of cancer patient = experiment: Expansion of lymphocytes from PBMC of cancer patients in plate/flask, OKT3 alone versus OKT3 and CH-296; type: cell-based, human
Procedure: The OKT3 and the CH-296 were immobilized to the culture equipment used in the following experiment. That is, an ACD-A solution containing OKT3 (final concentration: 5 μg/mL) and CH-296 (final concentration: 25 μg/mL) was added to a 12-well cell culture plate (manufactured by Corning Inc.) in a volume of 0.45 mL/well each, and incubated at 37° C. for 5 hours in 5% CO2. On this occasion, a group wherein only OKT3 was immobilized was set. The ACD-A solution containing the OKT3 or the OKT3 and the CH-296 was removed from the culture equipment by aspiration just before use, washed twice with DPBS and once with the RPMI 1640 medium, and then subjected to each experiment.
The PBMC of 0.53×10^6 cells derived from the cancer patient and separated in item (1) of Example 2 was suspended in 5.3 mL of 0.6% plasma containing KBM551 or 0.2% HSA/GT-T503, and added to the plate immobilized with the OKT3 or the OKT3 and the CH-296 as prepared in item (1) of Example 5. IL-2 was added thereto so as to have a final concentration of 200 U/mL and the mixture was incubated at 37° C. under 5% CO2 (on day 0 of culture). On day 4 of culture, the cell solution in each well was suspended, and a part of the suspension was diluted 8.3-fold using 0.6% plasma-containing KBM551 or 0.2% HSA/GT-T503. Then, 7.8 mL of the diluted solution was transferred to a 25 cm^2-cell culture flask (manufactured by Corning Inc.) to which nothing was immobilized, and added with IL-2 to each final concentration of 200 U/mL. The culture was continued, and on day 7, a plasma free KBM551 or a 0.2% HSA/GT-T503 was added to the culture solution in each group in an equivalent amount to dilute two-fold, and then added with IL-2 so as to have each final concentration of 200 U/mL. On day 10 of culture, the cell solution in each group was diluted two-fold using a plasma free KBM551 or a 0.2% HSA/GT-T503, and 15.6 mL each of the diluted solution was transferred to a fresh standing 25 cm^2-cell culture flask to which nothing was immobilized. IL-2 was added thereto so as to have a final concentration of 200 U/mL in each group. On days 10 and 14 from the start of culture, the number of viable cells was counted by the trypan blue staining method and an expansion fold was calculated by comparing the number of counted cells with the number of cells at the start of culture.

[4] = tested on: X-ray irradiated PBMCs derived from an allogeneic donor (stimulator cells); experiment: Allogeneic mixed lymphocyte reaction (MLR) using cultured lymphocytes (expansion fold); type: cell-based, human
[5] = tested on: PHA blast cells from non-autologous healthy donor; experiment: Non-autologous specific cytotoxicity after allogeneic MLR (Calcein-AM); type: cell-based, human; conditions: E/T ratio 90
Procedure: The PBMCs derived from a non-autologous healthy donor, prepared in item (2) of Example 6, were adjusted with 5HRPMI to 1×10^6 cells/mL, and seeded to a 6-well cell culture plate (manufactured by Corning Inc.) in a volume of 3 mL each. IL-2 was added thereto to a final concentration of 100 U/mL and phytohemaaglutinin (manufactured by Sigma, hereinafter referred to as PHA) was added thereto to a final concentration of 2 μg/mL, and the cells were cultured at 37° C. in 5% CO2. On day 4 of culture, 12 mL of 5HRPMI was added to the cell culture and IL-2 was added thereto to a final concentration of 100 U/mL. Thereafter, the cell culture was dispensed into a 6-well cell culture plate so as to have a volume of 5 mL/well. The culture was continued until day 7 of culture, thereby preparing PHA blast (blastogenic) cells.
Using the cells on day 7 of culture prepared in item (3) of Example 6, non-autologous specific cytotoxicity was assayed in the same manner as in item (5) of Example 2, except that the PHA blast cells which had been subjected to blastogenic cells in item (4) of Example 6 were used as the target cells which were incubated at 37° C. for 2 hours after addition of calcein-AM. These calcein-labeled target cells were mixed with a 30-fold amount of K562 cells, and the cytotoxicity was assayed using these target cells for determining the cytotoxicity. […]

[6] = PBMC of patient PT003, 0.2% HSA/GT-T503
[7] = PBMC of patient PT006 (breast cancer), KBM551
[8] = PBMC of patient PT008 (laryngeal cancer), KBM551
[9] = PBMC of patient PT012 (rectal cancer), KBM551

CC[C@]1(O)C[C@H]2CN(CCc3c([nH]c4ccccc34)[C@@](C(=O)OC)(c3cc4c(cc3OC)N(C=O)[C@H]3[C@@](O)(C(=O)OC)[C@H](OC(C)=O)[C@]5(CC)C=CCN6CC[C@]43[C@@H]65)C2)C1 [Vincristine Sulfate, vincristine sulfate]
GI50 [1]: 0.2 µg/mL
GI50 ([2]; healthy donor lymphocytes expanded with OKT3 + CH-296, read-out: GI50 (μg/mL) Initial Stimulation OKT3 + CH-296): 24.3 µg/mL
GI50 ([2]; healthy donor lymphocytes expanded with OKT3 alone, read-out: GI50 (μg/mL) Initial Stimulation OKT3): 4.42 µg/mL

OKT3: Anti-CD3 monoclonal antibody (OKT3), immobilized alone to the culture equipment as initial stimulation
CCR7^+CD45RA^+ (%) On Day 10 from Start of Culture [3, 6]: 13.3%
CCR7^+CD62L^+CD45RA^+ (%) On Day 10 from Start of Culture [3, 6]: 13.1%
CD62L^+CD45RA^+ (%) On Day 10 from Start of Culture [3, 6]: 52.5%
CCR7^+CD45RA^+ (%) On Day 10 from Start of Culture ([3]; PBMC of patient PT003, KBM551): 5.4%
CCR7^+CD62L^+CD45RA^+ (%) On Day 10 from Start of Culture ([3]; PBMC of patient PT003, KBM551): 5.1%
CD62L^+CD45RA^+ (%) On Day 10 from Start of Culture ([3]; PBMC of patient PT003, KBM551): 50.9%
CCR7^+CD45RA^+ (%) On Day 10 from Start of Culture ([3]; PBMC of patient PT006, KBM551): 24.9%
CCR7^+CD45RA^+ (%) On Day 14 from Start of Culture ([3]; PBMC of patient PT006, KBM551): 36.9%
CCR7^+CD62L^+CD45RA^+ (%) On Day 10 from Start of Culture ([3]; PBMC of patient PT006, KBM551): 24.6%
CCR7^+CD62L^+CD45RA^+ (%) On Day 14 from Start of Culture ([3]; PBMC of patient PT006, KBM551): 36.7%
CD62L^+CD45RA^+ (%) On Day 10 from Start of Culture ([3]; PBMC of patient PT006, KBM551): 79.2%
CD62L^+CD45RA^+ (%) On Day 14 from Start of Culture ([3]; PBMC of patient PT006, KBM551): 75.7%
CCR7^+CD45RA^+ (%) On Day 10 from Start of Culture ([3]; PBMC of patient PT008, KBM551): 4.6%
CCR7^+CD45RA^+ (%) On Day 14 from Start of Culture ([3]; PBMC of patient PT008, KBM551): 4.2%
CCR7^+CD62L^+CD45RA^+ (%) On Day 10 from Start of Culture ([3]; PBMC of patient PT008, KBM551): 4.2%
CCR7^+CD62L^+CD45RA^+ (%) On Day 14 from Start of Culture ([3]; PBMC of patient PT008, KBM551): 3.9%
CD62L^+CD45RA^+ (%) On Day 10 from Start of Culture ([3]; PBMC of patient PT008, KBM551): 53.0%
CCR7^+CD45RA^+ (%) On Day 10 from Start of Culture ([3]; PBMC of patient PT012, KBM551): 19.4%
CCR7^+CD45RA^+ (%) On Day 14 from Start of Culture ([3]; PBMC of patient PT012, KBM551): 25.0%
CCR7^+CD62L^+CD45RA^+ (%) On Day 10 from Start of Culture ([3]; PBMC of patient PT012, KBM551): 17.1%
CCR7^+CD62L^+CD45RA^+ (%) On Day 14 from Start of Culture ([3]; PBMC of patient PT012, KBM551): 23.4%
CD62L^+CD45RA^+ (%) On Day 10 from Start of Culture ([3]; PBMC of patient PT012, KBM551): 56.0%
CD62L^+CD45RA^+ (%) On Day 14 from Start of Culture ([3]; PBMC of patient PT012, KBM551): 43.4%
Expansion Fold (Fold) On Day 10 from Start of Culture (PBMC of cancer patient; PBMC of patient PT003 (breast cancer), 0.2% HSA/GT-T503): ×200 Fold
Expansion Fold (Fold) On Day 10 from Start of Culture (PBMC of cancer patient; PBMC of patient PT003 (breast cancer), KBM551): ×193 Fold
Expansion Fold (Fold) On Day 10 from Start of Culture (PBMC of cancer patient; [7]): ×202 Fold
Expansion Fold (Fold) On Day 14 from Start of Culture (PBMC of cancer patient; [7]): ×382 Fold
Expansion Fold (Fold) On Day 10 from Start of Culture (PBMC of cancer patient; [8]): ×119 Fold
Expansion Fold (Fold) On Day 14 from Start of Culture (PBMC of cancer patient; [8]): ×292 Fold
Expansion Fold (Fold) On Day 10 from Start of Culture (PBMC of cancer patient; [9]): ×281 Fold
Expansion Fold (Fold) On Day 14 from Start of Culture (PBMC of cancer patient; [9]): ×723 Fold
Expansion Rate (Fold) ([4]; lymphocytes of patient PT012, 10 days of lymphocyte expansion, responder:stimulator 1:0): x3.0 Fold
Expansion Rate (Fold) ([4]; lymphocytes of patient PT012, 10 days of lymphocyte expansion, responder:stimulator 1:1): x5.3 Fold
Expansion Rate (Fold) ([4]; lymphocytes of patient PT012, 14 days of lymphocyte expansion, responder:stimulator 1:0): x1.1 Fold
Expansion Rate (Fold) ([4]; lymphocytes of patient PT012, 14 days of lymphocyte expansion, responder:stimulator 1:1): x3.7 Fold
Cytotoxicity (%) ([5]; lymphocytes of patient PT012, 10 days of lymphocyte expansion): 15.2%
Cytotoxicity (%) ([5]; lymphocytes of patient PT012, 14 days of lymphocyte expansion): 27.6%
